Measurements from patent US11643438B2, “Antimicrobial peptides and methods of use” (priority 2018, dated 2023).
Converted amounts (≈) assume the structure as drawn. “Also recorded” adds a separate entry of the source. Where two headings read alike, the source gives them in different places.

Key:
[1] = test system: Rhizopus oryzae FGSC 9543; experiment: Antifungal MIC80/MFC assay, fungal pathogen panel; details: Rhizopus arrhizus, FGSC9543
Candida albicans SC5314 [2] = experiment: Antifungal MIC80/MFC assay, fungal pathogen panel
[3] = test system: Aspergillus niger FGSC A732; experiment: Antifungal MIC80/MFC assay, fungal pathogen panel; details: Aspergillus niger, FGSCA732
[4] = test system: Candida albicans ATCC 10231; experiment: Antifungal MIC80/MFC assay, fungal pathogen panel; details: ATCC10231
[5] = test system: Paecilomyces lilacinus 165E10; experiment: Antifungal MIC80/MFC assay, fungal pathogen panel; details: Purpureocillium lilacinum, 165E10
[6] = test system: Aspergillus fumigatus NRRL5109; experiment: Antifungal MIC80/MFC assay, fungal pathogen panel
[7] = test system: Candida tropicalis ATCC750 (Y-12699); experiment: Antifungal MIC80/MFC assay, fungal pathogen panel; details: Candida tropicalis, ATCC750
[8] = test system: Cryptococcus neoformans H99; experiment: Antifungal MIC80/MFC assay, fungal pathogen panel
[9] = test system: Mucor circinelloides 235C7; experiment: Antifungal MIC80/MFC assay, fungal pathogen panel
Fusarium solani 243G2 = experiment: Antifungal MIC80/MFC assay, fungal pathogen panel
[10] = test system: Aspergillus terreus 191A6; experiment: Antifungal MIC80/MFC assay, fungal pathogen panel
[11] = test system: Aspergillus flavus NRRL485; experiment: Antifungal MIC80/MFC assay, fungal pathogen panel
[12] = test system: Candida krusei ATCC 6258 (Y-7179); experiment: Antifungal MIC80/MFC assay, fungal pathogen panel; details: Pichia kudriavzevii, ATCC6258
[13] = test system: Curvularia lunata NRRL6409; experiment: Antifungal MIC80/MFC assay, fungal pathogen panel
[14] = test system: Aspergillus fumigatus MYA 3627; experiment: Antifungal MIC80/MFC assay, fungal pathogen panel; details: MYA3627
[15] = test system: Hamigera insecticola NRRL35442; experiment: Antifungal MIC80/MFC assay, fungal pathogen panel
[16] = test system: Aspergillus fumigatus NRRL6113; experiment: Antifungal MIC80/MFC assay, fungal pathogen panel
[17] = test system: Candida parapsilosis ATCC 22019 (Y-12969); experiment: Antifungal MIC80/MFC assay, fungal pathogen panel; details: Lodderomyces parapsilosis, ATCC22019
Candida albicans SC5314 [18] = experiment: Ex vivo model of fungal keratitis (porcine cornea); details: for antifungal activity (fungal growth/infection), in words: 0.1% 118A, 2% fluconazole, 5% natamycin, FIG. 11; for CFU: 118A 0.1% (1 mg/ml), natamycin 5% (50 mg/ml), fluconazole 2% (20 mg/ml)
[19] = test system: Aspergillus fumigatus NRRL5109; experiment: Ex vivo model of fungal keratitis (porcine cornea); details: for antifungal activity (fungal growth/infection), in words: Aspergillus fumigatus NRRL 5109, 0.1% 118A, 2% fluconazole, 5% natamycin, FIG. 13; for CFU: Aspergillus fumigatus NRRL5109, 118A 0.1% (1 mg/ml), natamycin 5% (50 mg/ml), fluconazole 2% (20 mg/ml)
C. albicans SC5314 Flu^R = experiment: Ex vivo model of fungal keratitis (porcine cornea); design: species or system Candida albicans; details: C. albicans SC5314 Flu^R; 118A 0.1% (1 mg/ml), natamycin 5% (50 mg/ml), fluconazole 2% (20 mg/ml)
Fusarium tricinctum = experiment: MIC/MFC against phytopathogenic (endophytic) fungi
Alternaria tennuissiema = experiment: MIC/MFC against phytopathogenic (endophytic) fungi
Fusarium oxysporum = experiment: MIC/MFC against phytopathogenic (endophytic) fungi
Alternaria brassicae = experiment: MIC/MFC against phytopathogenic (endophytic) fungi
Nodulosporium spp. = experiment: MIC/MFC against phytopathogenic (endophytic) fungi
Mycosphaerella populorum = experiment: MIC/MFC against phytopathogenic (endophytic) fungi; details: Sphaerulina musiva
P. glomerata = experiment: MIC/MFC against phytopathogenic (endophytic) fungi
Alternaria brassicicola = experiment: MIC/MFC against phytopathogenic (endophytic) fungi

In the case of `CC[C@H](C)C[C@H](C)CCCCCCCCC(=O)N[C@H]1C[C@@H](O)[C@@H](NCCN)NC(=O)[C@@H]2[C@@H](O)CCN2C(=O)[C@H]([C@H](O)CCN)NC(=O)[C@H]([C@H](O)[C@@H](O)c2ccc(O)cc2)NC(=O)[C@@H]2C[C@@H](O)CN2C(=O)[C@H]([C@@H](C)O)NC1=O` [CASP, caspofungin], the MFC [1] is reported as over 10 µM, the MIC80 [1] is reported as over 10 µM and the MFC (Candida albicans SC5314 [2]) is reported as 0.625 µM (≈ 0.683 µg/mL). For the same molecule, the MIC80 (Candida albicans SC5314 [2]) was 0.03 µM (≈ 0.0328 µg/mL), the MFC [3] was over 10 µM and the MIC80 [3] was 0.06 µM (≈ 0.0656 µg/mL). It also gave an MFC [4] of 5 µM (≈ 5.47 µg/mL), an MIC80 [4] of 0.03 µM (≈ 0.0328 µg/mL) and an MFC [5] of over 10 µM. For the same molecule, the MIC80 [5] was over 10 µM, the MFC [6] was over 10 µM and the MIC80 [6] was over 10 µM. For the same molecule, the MFC [7] was 0.15 µM (≈ 0.164 µg/mL), the MIC80 [7] was 0.03 µM (≈ 0.0328 µg/mL) and the MFC [8] was over 10 µM. For the same molecule, the MIC80 [8] was over 10 µM, the MFC [9] was over 10 µM and the MIC80 [9] was over 10 µM. It also gave an MFC (Fusarium solani 243G2) of over 10 µM, an MIC80 (Fusarium solani 243G2) of 0.15 µM (≈ 0.164 µg/mL) and an MFC [10] of over 10 µM. For the same molecule, the MIC80 [10] was 0.125 µM (≈ 0.137 µg/mL), the MFC [11] was over 10 µM and the MIC80 [11] was over 10 µM. The MFC [12] was 0.3 µM (≈ 0.328 µg/mL), the MIC80 [12] was 0.15 µM (≈ 0.164 µg/mL) and the MFC [13] was 5 µM (≈ 5.47 µg/mL). The MIC80 [13] was 5 µM (≈ 5.47 µg/mL), the MFC [14] was over 10 µM and the MIC80 [14] was 0.07 µM (≈ 0.0765 µg/mL). It also gave an MFC [15] of over 10 µM, an MIC80 [15] of 0.06 µM (≈ 0.0656 µg/mL) and an MFC [16] of over 10 µM. It also gave an MIC80 [16] of over 10 µM, an MFC [17] of 1.25 µM (≈ 1.37 µg/mL) and an MIC80 [17] of 0.3 µM (≈ 0.328 µg/mL).
For `OC(Cn1cncn1)(Cn1cncn1)c1ccc(F)cc1F` [Fluconazole, fluconazole], the “antifungal activity (fungal growth/infection), in words” value (Candida albicans SC5314 [18]) was “reduced the infection”, the CFU (Candida albicans SC5314 [18]) was 13.7 ± 19.3 CFU and the “antifungal activity (fungal growth/infection), in words” value [19] was “did not inhibit the growth”. The “antifungal activity (fungal growth/infection), in words” value ([19]; listed as fluconazole) was “unable to fully inhibit the fungus”, the CFU [19] was 2.0 ± 1.0 × 10^4 CFU and the CFU (C. albicans SC5314 Flu^R) was 2.2 ± 0.9 × 10^5 CFU.
`N#Cc1c[nH]cc1-c1cccc2c1OC(F)(F)O2` [Fludioxonil, fludioxonil] showed an MFC (Fusarium tricinctum) of over 20 µM, an MIC (Fusarium tricinctum) of 1.25 µM (≈ 0.31 µg/mL) and an MFC (Alternaria tennuissiema) of 1.25 µM (≈ 0.31 µg/mL). The MIC (Alternaria tennuissiema) was 1.25 µM (≈ 0.31 µg/mL), the MFC (Fusarium oxysporum) was over 20 µM and the MIC (Fusarium oxysporum) was 5 µM (≈ 1.24 µg/mL). The MFC (Alternaria brassicae) was 2.5 µM (≈ 0.62 µg/mL), the MIC (Alternaria brassicae) was 0.625 µM (≈ 0.155 µg/mL) and the MFC (Nodulosporium spp.) was over 20 µM. It also gave an MIC (Nodulosporium spp.) of 0.625 µM (≈ 0.155 µg/mL), an MFC (Mycosphaerella populorum) of over 20 µM and an MIC (Mycosphaerella populorum) of 1.25 µM (≈ 0.31 µg/mL). For the same molecule, the MFC (P. glomerata) was over 20 µM, the MIC (P. glomerata) was over 20 µM and the MIC (P. glomerata; P. glomerata, […]) was “no activity in the range tested”. The MFC (Alternaria brassicicola) was over 20 µM and the MIC (Alternaria brassicicola) was 1.25 µM (≈ 0.31 µg/mL).
With `CCC(C)n1ncn(-c2ccc(N3CCN(c4ccc(OCC5COC(Cn6cncn6)(c6ccc(Cl)cc6Cl)O5)cc4)CC3)cc2)c1=O` (stereo not shown) [ITC, itraconazole] the MFC [1] was 0.6 µM (≈ 0.423 µg/mL), the MIC80 [1] was 0.6 µM (≈ 0.423 µg/mL) and the MFC (Candida albicans SC5314 [2]) was over 10 µM. It also gave an MIC80 (Candida albicans SC5314 [2]) of 0.125 µM (≈ 0.0882 µg/mL), an MFC [3] of 5 µM (≈ 3.53 µg/mL) and an MIC80 [3] of 2.5 µM (≈ 1.76 µg/mL). It also gave an MFC [4] of over 10 µM, an MIC80 [4] of 0.06 µM (≈ 0.0423 µg/mL) and an MFC [5] of 1.25 µM (≈ 0.882 µg/mL). The MIC80 [5] was 2.5 µM (≈ 1.76 µg/mL), the MFC [6] was 10 µM (≈ 7.06 µg/mL) and the MIC80 [6] was 1.25 µM (≈ 0.882 µg/mL). For the same molecule, the MFC [7] was over 10 µM, the MIC80 [7] was 0.6 µM (≈ 0.423 µg/mL) and the MFC [8] was over 10 µM. It also gave an MIC80 [8] of 0.6 µM (≈ 0.423 µg/mL), an MFC [9] of over 10 µM and an MIC80 [9] of 10 µM (≈ 7.06 µg/mL). The MFC (Fusarium solani 243G2) was 5 µM (≈ 3.53 µg/mL), the MIC80 (Fusarium solani 243G2) was 2.5 µM (≈ 1.76 µg/mL) and the MFC [10] was 2.5 µM (≈ 1.76 µg/mL). The MIC80 [10] was 0.6 µM (≈ 0.423 µg/mL), the MFC [11] was 0.6 µM (≈ 0.423 µg/mL) and the MIC80 [11] was 0.15 µM (≈ 0.106 µg/mL). For the same molecule, the MFC [12] was 2.5 µM (≈ 1.76 µg/mL), the MIC80 [12] was 0.6 µM (≈ 0.423 µg/mL) and the MFC [13] was 5 µM (≈ 3.53 µg/mL). The MIC80 [13] was 2.5 µM (≈ 1.76 µg/mL), the MFC [14] was over 10 µM and the MIC80 [14] was 5 µM (≈ 3.53 µg/mL). The MFC [15] was 1.25 µM (≈ 0.882 µg/mL), the MIC80 [15] was 0.3 µM (≈ 0.212 µg/mL) and the MFC [16] was over 10 µM. The MIC80 [16] was 1.25 µM (≈ 0.882 µg/mL), the MFC [17] was 5 µM (≈ 3.53 µg/mL) and the MIC80 [17] was 0.6 µM (≈ 0.423 µg/mL).
With `C[C@@H]1C/C=C/C=C/C=C/C=C/[C@H](O[C@@H]2O[C@H](C)[C@@H](O)[C@H](N)[C@@H]2O)C[C@@H]2O[C@](O)(C[C@@H](O)C[C@H]3O[C@@H]3/C=C/C(=O)O1)C[C@H](O)[C@H]2C(=O)O` [Natamycin, natamycin] the “antifungal activity (fungal growth/infection), in words” value (Candida albicans SC5314 [18]) was “inhibited the growth; also recorded: reduced the infection”, the CFU (Candida albicans SC5314 [18]) was 0 CFU and the “antifungal activity (fungal growth/infection), in words” value [19] was “inhibited the growth; also recorded: reduced the fungal burden”. The CFU [19] was 0 CFU and the CFU (C. albicans SC5314 Flu^R) was 0 CFU.
